Results: ChEMBL document CHEMBL4765335, “Privileged scaffold-based design to identify a novel drug-like 5-HT receptor-preferring agonist to target Fragile X syndrome” (Eur J Med Chem, 2020)

assay: in vitro; settings: rat, liver microsomes

Row | SMILES | remaining at 0.5 h, 10 µM
1 | COc1ccc(-c2ccccc2N2CCN(CCCCOc3ccccc3C#N)CC2)cc1 | 7%
2 | COc1ccc(-c2ccccc2C2CCN(CCCCOc3cnccn3)CC2)cc1 | 6%
3 | COc1ccc(-c2ccccc2N2CCN(C[C@@H](O)COc3ccc(-c4cn5ccccc5n4)cc3)CC2)cc1 | 48%
